Laboratory results from ChEMBL document CHEMBL6134930, “Discovery of AB801, a Potent and Selective Inhibitor of AXL Receptor Tyrosine Kinase for Use in Cancer Therapy” (J Med Chem, 2025).
Calls of active or inactive are those of the source. The rule behind the calls is not given here.

Key:
CYP2B6 = target: T1, CYP2B6 (Homo sapiens, UniProt P20813); assay: Time dependent inhibition of CYP2B6 (unknown origin) at 30 uM measured after 30 mins relative to control; format: ADME; details: read-out: TDI
T1 sequence (P20813 whole entry): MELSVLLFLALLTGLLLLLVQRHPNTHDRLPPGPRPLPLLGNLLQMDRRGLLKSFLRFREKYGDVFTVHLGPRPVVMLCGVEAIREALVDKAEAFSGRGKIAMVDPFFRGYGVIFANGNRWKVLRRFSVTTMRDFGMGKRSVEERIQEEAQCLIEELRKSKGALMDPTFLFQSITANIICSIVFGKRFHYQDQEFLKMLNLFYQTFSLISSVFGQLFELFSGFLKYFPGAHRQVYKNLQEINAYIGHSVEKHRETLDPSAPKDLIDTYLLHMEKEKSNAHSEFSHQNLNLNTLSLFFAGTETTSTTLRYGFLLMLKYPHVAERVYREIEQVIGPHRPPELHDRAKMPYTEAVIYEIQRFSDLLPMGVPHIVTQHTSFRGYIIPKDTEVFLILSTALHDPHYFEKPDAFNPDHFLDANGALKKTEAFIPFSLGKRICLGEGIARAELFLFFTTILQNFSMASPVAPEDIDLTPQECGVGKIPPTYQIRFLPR

[1] = Efflux ratio in human Caco-2 cells; format: ADME, cell-based
[2] = Apparent permeability of compound from apical to basolateral side in human Caco-2 cells; format: ADME, cell-based; details: read-out: permeability
[3] = Clearance in Sprague-Dawley rat at 0.5 mg/kg, iv measured up to 24 hrs by LC-MS/MS analysis; format: ADME, organism-based; details: in vivo
[4] = target: T2, Tyrosine-protein kinase receptor UFO (Homo sapiens, UniProt P30530); assay: Inhibition of autophosphorylation AXL (unknown origin) expressed in HEK293 cells assessed as NanoLuc activity associated with phosphorylated proteins measured after 1 hr incubation by intracellular pAXL-ELISA; format: cell-based
T2 sequence (P30530 whole entry): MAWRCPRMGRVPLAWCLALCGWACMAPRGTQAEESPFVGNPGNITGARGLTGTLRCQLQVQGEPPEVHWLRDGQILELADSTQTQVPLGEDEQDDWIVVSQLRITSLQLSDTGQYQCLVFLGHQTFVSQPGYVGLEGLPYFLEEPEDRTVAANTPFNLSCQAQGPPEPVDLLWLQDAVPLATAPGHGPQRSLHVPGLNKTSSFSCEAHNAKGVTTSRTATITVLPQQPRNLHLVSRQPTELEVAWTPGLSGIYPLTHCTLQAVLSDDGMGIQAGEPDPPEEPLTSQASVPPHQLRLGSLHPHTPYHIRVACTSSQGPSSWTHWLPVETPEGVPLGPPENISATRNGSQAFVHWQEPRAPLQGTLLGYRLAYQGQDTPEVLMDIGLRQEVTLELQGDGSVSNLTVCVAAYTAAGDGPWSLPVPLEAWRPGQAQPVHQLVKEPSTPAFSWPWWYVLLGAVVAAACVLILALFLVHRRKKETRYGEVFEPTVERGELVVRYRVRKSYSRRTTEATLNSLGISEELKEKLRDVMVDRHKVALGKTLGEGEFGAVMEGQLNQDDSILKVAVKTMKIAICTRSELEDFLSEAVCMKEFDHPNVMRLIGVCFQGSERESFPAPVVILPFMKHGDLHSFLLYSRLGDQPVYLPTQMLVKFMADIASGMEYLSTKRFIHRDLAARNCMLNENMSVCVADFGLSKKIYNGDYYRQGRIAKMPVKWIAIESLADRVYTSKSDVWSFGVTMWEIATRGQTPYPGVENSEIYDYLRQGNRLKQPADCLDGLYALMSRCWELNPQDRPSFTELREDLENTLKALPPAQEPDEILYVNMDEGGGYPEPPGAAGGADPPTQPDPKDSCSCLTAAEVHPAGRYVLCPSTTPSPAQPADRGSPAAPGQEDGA

CYP1A2 = target: T3, CYP1A2 (Homo sapiens, UniProt P05177); assay: Time dependent inhibition of CYP1A2 (unknown origin) at 30 uM measured after 30 mins relative to control; format: ADME; details: read-out: TDI
T3 sequence (P05177 whole entry): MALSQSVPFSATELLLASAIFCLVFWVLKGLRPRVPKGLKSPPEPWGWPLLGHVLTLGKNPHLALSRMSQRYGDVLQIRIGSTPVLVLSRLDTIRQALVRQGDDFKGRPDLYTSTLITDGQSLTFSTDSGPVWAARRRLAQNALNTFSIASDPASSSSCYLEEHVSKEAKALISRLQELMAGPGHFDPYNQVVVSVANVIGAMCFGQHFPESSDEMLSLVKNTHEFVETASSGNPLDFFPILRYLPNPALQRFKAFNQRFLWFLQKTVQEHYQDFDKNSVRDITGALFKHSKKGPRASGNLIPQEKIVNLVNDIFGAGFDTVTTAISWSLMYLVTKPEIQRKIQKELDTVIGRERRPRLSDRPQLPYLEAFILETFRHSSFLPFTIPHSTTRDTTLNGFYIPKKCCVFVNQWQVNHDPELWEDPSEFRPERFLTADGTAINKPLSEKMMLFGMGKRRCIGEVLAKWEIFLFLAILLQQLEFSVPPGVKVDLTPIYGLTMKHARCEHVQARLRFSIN

CYP3A4 [5] = target: T4, CYP3A4 (Homo sapiens, UniProt P08684); assay: Time dependent inhibition of CYP3A4 (unknown origin) using testosterone as substrate at 30 uM measured after 30 mins relative to control; format: ADME; details: probe testosterone, read-out: TDI
[6] = Clearance in cynomolgus monkey at 0.5 mg/kg, iv measured up to 24 hrs by LC-MS/MS analysis; format: ADME, organism-based, Macaca fascicularis; details: in vivo
CYP2C9 = CYP2C9 (Homo sapiens, UniProt P11712); assay: Time dependent inhibition of CYP2C9 (unknown origin) at 30 uM measured after 30 mins relative to control; format: ADME; details: read-out: TDI
[7] = Clearance in CD-1 mouse at 0.5 mg/kg, iv measured up to 24 hrs by LC-MS/MS analysis; format: ADME, organism-based; details: in vivo
[8] = AUCinf in Sprague-Dawley rat at 2 mg/kg, po measured up to 8 hrs by LC-MS/MS analysis; format: ADME, organism-based; details: in vivo
CYP2C8 = target: T5, CYP2C8 (Homo sapiens, UniProt P10632); assay: Time dependent inhibition of CYP2C8 (unknown origin) at 30 uM measured after 30 mins relative to control; format: ADME; details: read-out: TDI
T5 sequence (P10632 whole entry): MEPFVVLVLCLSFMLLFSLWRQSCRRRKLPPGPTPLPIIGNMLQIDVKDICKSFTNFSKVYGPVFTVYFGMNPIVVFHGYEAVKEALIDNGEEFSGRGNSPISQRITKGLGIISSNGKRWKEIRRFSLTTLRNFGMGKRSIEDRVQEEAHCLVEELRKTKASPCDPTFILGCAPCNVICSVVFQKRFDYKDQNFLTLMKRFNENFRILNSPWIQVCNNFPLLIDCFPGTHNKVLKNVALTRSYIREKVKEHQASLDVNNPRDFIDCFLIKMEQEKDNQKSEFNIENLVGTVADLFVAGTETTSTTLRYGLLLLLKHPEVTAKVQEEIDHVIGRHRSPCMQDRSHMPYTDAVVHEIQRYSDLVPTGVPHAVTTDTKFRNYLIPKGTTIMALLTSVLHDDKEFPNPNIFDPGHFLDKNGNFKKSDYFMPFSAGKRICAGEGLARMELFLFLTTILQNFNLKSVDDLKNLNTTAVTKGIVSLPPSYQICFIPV

[9] = Clearance in Beagle dog at 0.5 mg/kg, iv measured up to 24 hrs by LC-MS/MS analysis; format: ADME, organism-based, Canis lupus familiaris; details: in vivo
[10] = Metabolic stability in rat hepatocytes assessed as intrinsic clearance measured per 10^6 cells; format: ADME, cell-based, Hepatocyte; details: read-out: CLH
CYP2C19 = CYP2C19 (Homo sapiens, UniProt P33261); assay: Time dependent inhibition of CYP2C19 (unknown origin) at 30 uM measured after 30 mins relative to control; format: ADME; details: read-out: TDI
hERG (KCNH2) = hERG (KCNH2) (Homo sapiens, UniProt Q12809); assay: Inhibition of hERG at 10 uM by high throughput cell based patch clamp assay; format: toxicity
CYP3A4 [11] = target: T4, CYP3A4; assay: Time dependent inhibition of CYP3A4 (unknown origin) using midazolam as substrate at 30 uM measured after 30 mins relative to control; format: ADME; details: probe midazolam, read-out: TDI
[12] = Metabolic stability in human hepatocytes assessed as intrinsic clearance measured per 10^6 cells; format: ADME, cell-based, Hepatocyte; details: read-out: CLH
[13] = target: T2, Tyrosine-protein kinase receptor UFO; assay: Inhibition of human AXL measured after 150 mins by ATP-competitive HTRF based biochemical assay
CYP2D6 = CYP2D6 (Homo sapiens, UniProt P10635); assay: Time dependent inhibition of CYP2D6 (unknown origin) at 30 uM measured after 30 mins relative to control; format: ADME; details: read-out: TDI
786-0 = assay: Anti-tumor activity against human 786-0 cells xenografted in mouse model assessed as tumor growth inhibition at 40 mg/kg, po once daily for 15 days; format: functional, organism-based; details: time 15.0 day

T4 sequence (P08684 whole entry): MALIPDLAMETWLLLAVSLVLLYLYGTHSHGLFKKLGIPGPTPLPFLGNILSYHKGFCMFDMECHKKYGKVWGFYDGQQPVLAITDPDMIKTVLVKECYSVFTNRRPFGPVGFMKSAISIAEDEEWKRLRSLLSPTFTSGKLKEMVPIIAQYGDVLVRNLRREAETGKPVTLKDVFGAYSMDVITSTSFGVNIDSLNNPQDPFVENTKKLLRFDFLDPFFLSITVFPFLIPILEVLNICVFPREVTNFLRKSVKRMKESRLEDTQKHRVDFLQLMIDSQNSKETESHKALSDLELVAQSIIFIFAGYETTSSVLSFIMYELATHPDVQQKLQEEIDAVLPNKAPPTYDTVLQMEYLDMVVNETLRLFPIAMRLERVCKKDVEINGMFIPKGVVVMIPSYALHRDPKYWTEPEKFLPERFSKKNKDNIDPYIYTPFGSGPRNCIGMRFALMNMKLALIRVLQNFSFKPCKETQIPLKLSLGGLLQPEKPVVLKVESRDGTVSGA
Sequence of CYP2C9 (P11712 whole entry): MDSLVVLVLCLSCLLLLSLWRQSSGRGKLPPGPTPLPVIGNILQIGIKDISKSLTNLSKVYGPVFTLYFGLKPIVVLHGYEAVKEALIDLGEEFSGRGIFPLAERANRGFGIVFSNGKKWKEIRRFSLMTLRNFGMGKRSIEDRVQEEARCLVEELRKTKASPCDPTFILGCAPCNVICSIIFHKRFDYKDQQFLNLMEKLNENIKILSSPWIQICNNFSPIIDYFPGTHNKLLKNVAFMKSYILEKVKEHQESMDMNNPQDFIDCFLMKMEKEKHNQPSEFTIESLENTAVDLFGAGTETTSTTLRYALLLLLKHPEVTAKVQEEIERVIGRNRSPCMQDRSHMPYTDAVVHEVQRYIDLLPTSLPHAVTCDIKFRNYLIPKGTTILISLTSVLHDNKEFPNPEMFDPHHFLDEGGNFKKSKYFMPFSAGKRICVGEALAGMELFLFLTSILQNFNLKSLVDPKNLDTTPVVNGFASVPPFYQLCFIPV
Sequence of CYP2C19 (P33261 whole entry): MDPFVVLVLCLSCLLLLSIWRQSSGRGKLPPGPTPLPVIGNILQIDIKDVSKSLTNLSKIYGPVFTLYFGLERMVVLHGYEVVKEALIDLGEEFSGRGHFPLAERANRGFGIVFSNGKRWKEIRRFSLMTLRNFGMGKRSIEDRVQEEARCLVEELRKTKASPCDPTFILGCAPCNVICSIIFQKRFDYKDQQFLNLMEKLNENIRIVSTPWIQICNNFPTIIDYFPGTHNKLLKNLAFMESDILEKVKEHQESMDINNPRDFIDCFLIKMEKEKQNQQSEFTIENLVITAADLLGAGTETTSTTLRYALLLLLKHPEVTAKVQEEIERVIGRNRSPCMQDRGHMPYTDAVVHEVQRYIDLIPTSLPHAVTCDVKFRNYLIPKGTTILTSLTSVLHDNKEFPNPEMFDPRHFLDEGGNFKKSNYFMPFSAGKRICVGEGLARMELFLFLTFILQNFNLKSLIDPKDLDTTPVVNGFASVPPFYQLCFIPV
Sequence of CYP2D6 (P10635 whole entry): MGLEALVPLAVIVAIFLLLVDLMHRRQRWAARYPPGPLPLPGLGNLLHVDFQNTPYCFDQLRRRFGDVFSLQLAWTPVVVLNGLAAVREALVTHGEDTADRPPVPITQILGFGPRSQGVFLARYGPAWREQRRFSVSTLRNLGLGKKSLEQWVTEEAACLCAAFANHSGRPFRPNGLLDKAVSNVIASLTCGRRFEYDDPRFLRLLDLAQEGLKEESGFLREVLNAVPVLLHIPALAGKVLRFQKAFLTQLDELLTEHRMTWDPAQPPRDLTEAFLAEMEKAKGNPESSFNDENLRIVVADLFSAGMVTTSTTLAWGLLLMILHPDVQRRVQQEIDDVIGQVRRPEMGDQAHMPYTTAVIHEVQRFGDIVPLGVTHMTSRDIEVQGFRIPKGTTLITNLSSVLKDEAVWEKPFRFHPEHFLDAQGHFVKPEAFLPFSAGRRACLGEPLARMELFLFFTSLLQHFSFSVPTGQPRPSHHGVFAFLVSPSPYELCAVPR
Sequence of hERG (KCNH2) (Q12809 whole entry): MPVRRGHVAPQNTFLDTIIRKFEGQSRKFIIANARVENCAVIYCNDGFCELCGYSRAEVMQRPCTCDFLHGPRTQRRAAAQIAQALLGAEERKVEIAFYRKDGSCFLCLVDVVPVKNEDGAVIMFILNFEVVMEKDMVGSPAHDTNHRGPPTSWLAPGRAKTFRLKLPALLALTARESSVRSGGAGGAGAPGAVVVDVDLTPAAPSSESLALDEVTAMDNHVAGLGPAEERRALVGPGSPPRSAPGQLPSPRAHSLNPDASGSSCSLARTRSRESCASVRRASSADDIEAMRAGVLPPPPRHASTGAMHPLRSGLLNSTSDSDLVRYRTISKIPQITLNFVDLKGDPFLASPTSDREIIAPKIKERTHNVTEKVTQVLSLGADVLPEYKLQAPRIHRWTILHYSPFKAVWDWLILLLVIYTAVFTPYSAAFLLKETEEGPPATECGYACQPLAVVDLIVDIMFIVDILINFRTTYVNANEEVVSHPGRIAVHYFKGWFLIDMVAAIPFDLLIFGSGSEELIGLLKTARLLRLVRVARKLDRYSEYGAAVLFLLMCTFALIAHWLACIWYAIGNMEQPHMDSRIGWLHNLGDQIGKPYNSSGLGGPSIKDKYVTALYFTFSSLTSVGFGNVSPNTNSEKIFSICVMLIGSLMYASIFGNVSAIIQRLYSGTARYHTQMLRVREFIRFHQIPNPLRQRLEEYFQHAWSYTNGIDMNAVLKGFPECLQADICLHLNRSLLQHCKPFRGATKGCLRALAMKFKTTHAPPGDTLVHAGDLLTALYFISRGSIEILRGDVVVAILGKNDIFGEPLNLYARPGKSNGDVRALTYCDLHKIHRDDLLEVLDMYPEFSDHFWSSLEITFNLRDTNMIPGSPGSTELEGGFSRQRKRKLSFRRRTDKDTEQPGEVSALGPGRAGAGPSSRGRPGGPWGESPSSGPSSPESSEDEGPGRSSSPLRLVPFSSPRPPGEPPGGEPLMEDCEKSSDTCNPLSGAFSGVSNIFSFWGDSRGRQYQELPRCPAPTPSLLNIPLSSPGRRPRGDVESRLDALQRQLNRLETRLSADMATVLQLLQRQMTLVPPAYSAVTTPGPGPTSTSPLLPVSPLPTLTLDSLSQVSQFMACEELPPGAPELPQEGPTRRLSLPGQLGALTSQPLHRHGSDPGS

## Cc1cccnc1-c1ccc(-c2n[nH]c3ncc(-c4ccc5c(c4)CC[C@@H](N4C6COCC4C6)CC5)cc23)cc1
CYP2B6
  inhibition at 0.5 h, 30 µM: 22%
[1]
  efflux ratio: 1
[2]
  Papp A→B: 0.96 ×10⁻⁶ cm/s
[3]
  clearance: 2.67 mL/min/kg
[4]
  IC50: 65 nM
CYP1A2
  inhibition at 0.5 h, 30 µM: 24%
CYP3A4 [5]
  inhibition at 0.5 h, 30 µM: 50%
[6]
  clearance: 6.83 mL/min/kg
CYP2C9
  inhibition at 0.5 h, 30 µM: 0%
[7]
  clearance: 5.33 mL/min/kg
[8]
  AUC(0-inf): 3000 ng·h/mL
CYP2C8
  inhibition at 0.5 h, 30 µM: 14%
[9]
  clearance: 25 mL/min/kg
[10]
  hepatocyte CLint: 2.7 µL/min/1e6 cells
CYP2C19
  inhibition at 0.5 h, 30 µM: 23%
hERG (KCNH2)
  inhibition at 10 µM: 23%
CYP3A4 [11]
  inhibition at 0.5 h, 30 µM: 31%
[12]
  hepatocyte CLint: < 2.7 µL/min/1e6 cells
[13]
  IC50: 2.4 nM
CYP2D6
  inhibition at 0.5 h, 30 µM: 2.4%

## CCN(CC)CCNC(=O)c1c(C)[nH]c(/C=C2\C(=O)Nc3ccc(F)cc32)c1C
786-0
  Activity: inactive
